Assay results published in PMC12442081, “Combating Fuel Biocontamination: Tailored Antimicrobial Peptides and an Innovative Delivery Strategy” (ACS Applied Bio Materials, 2025).

Columns and labels:
[1] = test system: B. licheniformis; assay type: cell-based, Bacillus licheniformis; details: 2 h
Procedure: (§1) The stability of the peptides against one Gram-positive (B. licheniformis) and Gram-negative (S. paucimobilis) bacteria was assessed by determining their MIC in chymotrypsin (protease), serum, and salt (NaCl). The experiments were adopted from Selvarajan et.al. The fold change in MIC with respect to the control was calculated and determined for each peptide against the microbial clusters.
(§2) To determine the susceptibility of the engineered peptides, which are abundant in Trp, to protease degradation, chymotrypsin, which cleaves Tyr, Phe, and Trp at physiological pH was chosen as the model protease. The protocol described by Wang et.al. (2014) was used with slight modifications. Peptides were incubated with chymotrypsin at a molar ratio of 40:1 (peptide: protease) in 10 mM PBS buffer (pH7.4) at 37 °C, and samples were analyzed after 2 h. The enzyme reaction was terminated by incubating the samples at 80 °C for 10 min. The incubated peptide mixtures were then serially diluted in 96-well plates to determine the MIC values of the microbial strains.
(§3) The stability of the peptides in the presence of the serum was tested using a 10% fetal bovine serum (heat inactivated).
(§4) We also studied the effects of 600 mM NaCl (in vitro) and natural seawater (NSW) on the MICs of the engineered peptides.

[2] = test system: HR+DN+SP coculture; assay type: cell-based, H. resinae + D. nishinomiyaensis + S. paucimobilis
Procedure: (§5) All of the bacterial species were grown overnight at 37 °C in LB broth. 10^7 CFU/mL of cells were resuspended in fresh culture and grown until the mid log phase. , The bacterial cells were adjusted to a concentration of 5 × 10^5 CFU/mL to quantify the MIC. Equal volumes of the respective bacterial cultures were incubated with the serially diluted peptides in 96-well microtiter plate and incubated overnight at 37 °C in ambient air. Microorganisms without peptides were treated as the positive control, while uninoculated broth was used as the negative control. The MIC was taken as the lowest peptide concentration at which observable bacteria growth was inhibited, as measured by a microplate reader (Biotek Synergy H1 microplate reader). Experiments were performed in triplicates, and the mean MIC values were determined. A similar study was performed to understand the effect of peptide purity, i.e., ranging from 70 to 95%, on the peptide MIC. […]
(§6) fresh medium at equal proportions (v/v). Multiple combinations of microbial cocultures were prepared […]
(§7) Table S2. Schematic representation of the microbial cocultures grown in lab.
(§8) Bacterial clusters Fungal clusters
(§9) Gram-positive Gram-negative
(§10) Actinobacteria/DN Firmicutes/BL Proteobacteria/SP Ascomycota/HR […]
(§11) (b) The three upper panels […]
(§12) controlling the growth of microbial cocultures.

[3] = test system: DN+SP coculture; assay type: cell-based, D. nishinomiyaensis + S. paucimobilis
Procedure: as §5, §6, §7, §8, §9, §10, §11, §12

[4] = test system: HR+SP coculture; assay type: cell-based, H. resinae + S. paucimobilis
Procedure: as §5, §6, §7, §8, §9, §10, §11, §12

[5] = test system: SP+BL coculture; assay type: cell-based, S. paucimobilis + B. licheniformis
Procedure: as §5, §6, §7, §8, §9, §10, §11, §12

[6] = test system: HR+BL coculture; assay type: cell-based, H. resinae + B. licheniformis
Procedure: as §5, §6, §7, §8, §9, §10, §11, §12

[7] = test system: HR+DN coculture; assay type: cell-based, H. resinae + D. nishinomiyaensis
Procedure: as §5, §6, §7, §8, §9, §10, §11, §12

[8] = test system: BL+DN coculture; assay type: cell-based, B. licheniformis + D. nishinomiyaensis
Procedure: as §5, §6, §7, §8, §9, §10, §11, §12

[9] = test system: Micrococcus yunnanensis (MY) ATCC 12698; assay type: cell-based
Summary of the method: (§13)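 Peptides were serially diluted and incubated overnight at 37 °C with an equal volume of mid-log bacteria at 5 × 10^5 CFU/mL, previously grown in LB broth. Growth inhibition was read on a plate reader, and mean MIC from triplicates was reported.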

[10] = test system: Pseudomonas aeruginosa (PA) ATCC 39327; assay type: cell-based; details: ATCC 39327
Summary of the method: as §13

[11] = test system: Dermacoccus nishinomiyaensis (DN) ATCC 29093; assay type: cell-based
Summary of the method: as §13

[12] = test system: Macrococcus caseolyticus (MC) ATCC 13548; assay type: cell-based
Summary of the method: as §13

[13] = test system: Sphingomonas paucimobilis (SP); assay type: cell-based
Summary of the method: as §13

[14] = test system: Bacillus licheniformis (BL) ATCC 14580; assay type: cell-based; details: ATCC 14580
Summary of the method: as §13

[15] = test system: HR+BL+DN coculture; assay type: cell-based, H. resinae + B. licheniformis + D. nishinomiyaensis
Procedure: as §5, §6, §7, §8, §9, §10, §11, §12

[16] = test system: S. paucimobilis; assay type: cell-based, Sphingomonas paucimobilis; details: 2 h
Procedure: as §1, §2, §3, §4

[17] = test system: HR+BL+SP coculture; assay type: cell-based, H. resinae + B. licheniformis + S. paucimobilis
Procedure: as §5, §6, §7, §8, §9, §10, §11, §12

[18] = test system: Roseomonas mucosa (RM) ATCC BAA-692; assay type: cell-based
Summary of the method: as §13

[19] = test system: Hormoconis resinae (HR) ATCC 20267; assay type: cell-based
Procedure: All of the bacterial species were grown overnight at 37 °C in LB broth. 10^7 CFU/mL of cells were resuspended in fresh culture and grown until the mid log phase. , The bacterial cells were adjusted to a concentration of 5 × 10^5 CFU/mL to quantify the MIC. Equal volumes of the respective bacterial cultures were incubated with the serially diluted peptides in 96-well microtiter plate and incubated overnight at 37 °C in ambient air. Microorganisms without peptides were treated as the positive control, while uninoculated broth was used as the negative control. The MIC was taken as the lowest peptide concentration at which observable bacteria growth was inhibited, as measured by a microplate reader (Biotek Synergy H1 microplate reader). Experiments were performed in triplicates, and the mean MIC values were determined. A similar study was performed to understand the effect of peptide purity, i.e., ranging from 70 to 95%, on the peptide MIC.
The same experimental procedures that were conducted for the antibacterial assay were used to determine the MIC of the peptides against the fungal strain, H. resinae.

[20] = test system: Kocuria rosea (KR) ATCC 186; assay type: cell-based
Summary of the method: as §13

SMILES	MIC under different treatments [1] [µM]	MIC [2] [µM]	MIC [3] [µM]	MIC [4] [µM]	MIC [5] [µM]	MIC [6] [µM]	MIC [7] [µM]	MIC [8] [µM]	MIC [9] [µM]	MIC [10] [µM]	MIC [11] [µM]	MIC [12] [µM]	MIC [13] [µM]	MIC [14] [µM]	MIC [15] [µM]	MIC under different treatments [16] [µM]	MIC [17] [µM]	MIC [18] [µM]	MIC [19] [µM]	MIC [20] [µM]
CC[C@H](C)[C@H](N)C(=O)N[C@@H](CC(C)C)C(=O)N1CCC[C@H]1C(=O)N[C@@H](Cc1ccccc1)C(=O)N[C@@H](CCCCN)C(=O)N[C@@H](Cc1c[nH]c2ccccc12)C(=O)N1CCC[C@H]1C(=O)N[C@@H](Cc1c[nH]c2ccccc12)C(=O)N[C@@H](Cc1c[nH]c2ccccc12)C(=O)N1CCC[C@H]1C(=O)N[C@@H](Cc1c[nH]c2ccccc12)C(=O)N[C@@H](CCCNC(=N)N)C(=O)N[C@@H](CCCNC(=N)N)C(=O)O [P11]	≤ 4	3.7	30	30	120	3.7	1.87	60	0.9	1.9	0.9	0.9	1.9	1.9	1.87	≤ 4	1.87			
CC[C@H](C)[C@H](N)C(=O)N[C@@H](CC(C)C)C(=O)N1CCC[C@H]1C(=O)N[C@@H](Cc1c[nH]c2ccccc12)C(=O)N[C@@H](CCCCN)C(=O)N[C@@H](Cc1c[nH]c2ccccc12)C(=O)N1CCC[C@H]1C(=O)N[C@@H](Cc1c[nH]c2ccccc12)C(=O)N[C@@H](Cc1c[nH]c2ccccc12)C(=O)N1CCC[C@H]1C(=O)N[C@@H](Cc1c[nH]c2ccccc12)C(=O)N[C@@H](CCCCN)C(=O)N[C@@H](CCCNC(=N)N)C(=O)O [P3]	≤ 4	15	3.7	0.9	1.87	0.9	0.9	30					1.9	1.9	7.5	≤ 4	3.7	1.9		
CC[C@H](C)[C@H](N)C(=O)N[C@@H](CC(C)C)C(=O)N[C@@H](Cc1ccc(O)cc1)C(=O)N[C@@H](Cc1c[nH]c2ccccc12)C(=O)N[C@@H](CCCCN)C(=O)N[C@@H](Cc1c[nH]c2ccccc12)C(=O)N1CCC[C@H]1C(=O)N[C@@H](Cc1c[nH]c2ccccc12)C(=O)N[C@@H](Cc1c[nH]c2ccccc12)C(=O)N1CCC[C@H]1C(=O)N[C@@H](Cc1c[nH]c2ccccc12)C(=O)N[C@@H](CCCNC(=N)N)C(=O)N[C@@H](CCCNC(=N)N)C(=O)O [P17]	≤ 4	7.5	15	7.5	7.5	7.5	0.9	1.87	0.9	3.8	0.9	1.9	0.9	0.9	0.9	≤ 4	0.9		3.8	1.9
